Test results reported in PubChem BioAssay AID328 (DTP/NCI, 2004).
Inconclusive results and toxic doses are left out.

Tested on: BDF1 mice, P388 leukemia ip, median survival T/C
Assay: NCI In Vivo Anticancer Drug Screen. Data for tumor model P388 Leukemia (intraperitoneal) in B6D2F1 (BDF1) mice
Conditions: endpoint: median survival time, higher = longer survival
Procedure, shortened: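 Steps: implant the tumour, treat one group with compound and another with vehicle, record survival, then divide treated by control.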

[1] = dose: 100.0 mg/kg/injection, schedule: Q01DX009 (ip), vehicle: Klucel (hydroxypropylcellulose) (HPC)
[2] = dose: 12.5 mg/kg/injection, schedule: Q01DX001 (ip), vehicle: Klucel (hydroxypropylcellulose) (HPC)
[3] = dose: 50.0 mg/kg/injection, schedule: Q01DX009 (ip), vehicle: saline with Tween-80
[4] = dose: 100.0 mg/kg/injection, schedule: Q01DX009 (ip), vehicle: saline with Tween-80
[5] = dose: 200.0 mg/kg/injection, schedule: Q01DX009 (ip), vehicle: saline with Tween-80
[6] = dose: 25.0 mg/kg/injection, schedule: Q01DX009 (ip), vehicle: saline
[7] = dose: 50.0 mg/kg/injection, schedule: Q04DX003 (ip), vehicle: saline
[8] = dose: 100.0 mg/kg/injection, schedule: Q04DX003 (ip), vehicle: saline
[9] = dose: 200.0 mg/kg/injection, schedule: Q04DX003 (ip), vehicle: saline
[10] = dose: 50.0 mg/kg/injection, schedule: Q01DX001 (ip), vehicle: saline
[11] = dose: 100.0 mg/kg/injection, schedule: Q01DX001 (ip), vehicle: saline
[12] = dose: 100.0 mg/kg/injection, schedule: Q04DX003 (ip), vehicle: saline with Tween-80
[13] = dose: 200.0 mg/kg/injection, schedule: Q04DX003 (ip), vehicle: saline with Tween-80
[14] = dose: 400.0 mg/kg/injection, schedule: Q04DX003 (ip), vehicle: saline with Tween-80
[15] = dose: 12.5 mg/kg/injection, schedule: Q01DX009 (ip), vehicle: saline

Question: Which results are given for `CCOC(=O)c1cnc2ccc3ccccc3n2c1=O`?
Answer: T/C (dose: 50.0 mg/kg/injection, schedule: Q04DX002 (ip), vehicle: saline with Tween-80): 101 % of control; T/C (dose: 100.0 mg/kg/injection, schedule: Q04DX002 (ip), vehicle: saline with Tween-80): 101 % of control; T/C (dose: 200.0 mg/kg/injection, schedule: Q04DX002 (ip), vehicle: saline with Tween-80): 93 % of control

Question: For `CC(=O)[C@]1(O)Cc2c(O)c3c(c(O)c2[C@@H](OC2CC(N)C(O)C(C)O2)C1)C(=O)c1c(OC(C)C)cccc1C3=O` (stereo not given in full), which T/C (dose: 6.25 mg/kg/injection, schedule: Q04DX003 (ip), vehicle: water) is on record?
Answer: 118 % of control

Question: What about the T/C (dose: 12.5 mg/kg/injection, schedule: Q04DX003 (ip), vehicle: water) of the same compound?
Answer: 162 % of control

Question: And the T/C (dose: 50.0 mg/kg/injection, schedule: Q04DX003 (ip), vehicle: water)?
Answer: 89 % of control

Question: How did the T/C [1] turn out when `COc1cc(NS(C)(=O)=O)ccc1NS(C)(=O)=O` was run?
Answer: 87 % of control

Question: And the T/C (dose: 200.0 mg/kg/injection, schedule: Q01DX009 (ip), vehicle: Klucel (hydroxypropylcellulose) (HPC))?
Answer: 87 % of control

Question: And the T/C (dose: 400.0 mg/kg/injection, schedule: Q01DX009 (ip), vehicle: Klucel (hydroxypropylcellulose) (HPC))?
Answer: 87 % of control

Question: Which results are given for `CCNc1nc(Cl)nc(-c2cn(-c3ccccc3)c3ccccc23)n1`?
Answer: T/C (dose: 12.5 mg/kg/injection, schedule: Q01DX009 (ip), vehicle: Klucel (hydroxypropylcellulose) (HPC)): 100 % of control; T/C (dose: 25.0 mg/kg/injection, schedule: Q01DX009 (ip), vehicle: Klucel (hydroxypropylcellulose) (HPC)): 91 % of control; T/C (dose: 50.0 mg/kg/injection, schedule: Q01DX009 (ip), vehicle: Klucel (hydroxypropylcellulose) (HPC)): 86 % of control; T/C [1]: 91 % of control

Question: `O=C1C=CC(=O)C(c2ccccc2)=C1` was tested. Which T/C [2] did it give?
Answer: 110 % of control

Question: And the T/C (dose: 25.0 mg/kg/injection, schedule: Q01DX001 (ip), vehicle: Klucel (hydroxypropylcellulose) (HPC))?
Answer: 100 % of control

Question: And the T/C (dose: 50.0 mg/kg/injection, schedule: Q01DX001 (ip), vehicle: Klucel (hydroxypropylcellulose) (HPC))?
Answer: 100 % of control

Question: For `CCN(CC)CCNc1ccc(C)c2sc3ccc(O)cc3c(=O)c12`, which T/C [3] is on record?
Answer: 183 % of control

Question: And the T/C [4]?
Answer: 94 % of control

Question: For `CN(C)c1ccc(/C=C/c2cc(N(CCO)CCO)c3ccccc3n2)cc1`, which T/C [3] is on record?
Answer: 100 % of control

Question: What about the T/C [4] of the same compound?
Answer: 99 % of control

Question: And the T/C [5]?
Answer: 91 % of control

Question: With `CN(/N=C/C(O)C(O)C(O)CO)c1ccccc1` (stereo not given) as the compound, how does the T/C (dose: 50.0 mg/kg/injection, schedule: Q04DX003 (ip), vehicle: Klucel (hydroxypropylcellulose) (HPC)) read?
Answer: 105 % of control

Question: What about the T/C (dose: 100.0 mg/kg/injection, schedule: Q04DX003 (ip), vehicle: Klucel (hydroxypropylcellulose) (HPC)) of the same compound?
Answer: 105 % of control

Question: And the T/C (dose: 200.0 mg/kg/injection, schedule: Q04DX003 (ip), vehicle: Klucel (hydroxypropylcellulose) (HPC))?
Answer: 100 % of control

Question: What does the source list for `C#CCOC1CCCCO1` (stereo not given)?
Answer: T/C [6]: 90 % of control; T/C (dose: 50.0 mg/kg/injection, schedule: Q01DX009 (ip), vehicle: saline): 100 % of control; T/C (dose: 100.0 mg/kg/injection, schedule: Q01DX009 (ip), vehicle: saline): 100 % of control

Question: Which results are given for `CS(=O)(=O)C1CCCCC1SC#N` (stereo not given)?
Answer: T/C [3]: 98 % of control; T/C [4]: 115 % of control; T/C [5]: 115 % of control

Question: Which results are given for `O=C(O)c1ccc(S(=O)(=O)O)cc1C(=O)O`?
Answer: T/C [7]: 104 % of control; T/C [8]: 100 % of control; T/C [9]: 91 % of control

Question: Which T/C [10] does the source give for `NOCc1c(F)c(F)c(F)c(F)c1F` here?
Answer: 113 % of control

Question: And the T/C [11]?
Answer: 104 % of control

Question: And the T/C (dose: 200.0 mg/kg/injection, schedule: Q01DX001 (ip), vehicle: saline)?
Answer: 95 % of control

Question: Which results are given for `CC(OC1C(N)C(O)OC(CO)C1O)C(=O)O` (stereo not given)?
Answer: T/C (dose: 50.0 mg/kg/injection, schedule: Q01DX005 (ip), vehicle: saline): 103 % of control; T/C (dose: 100.0 mg/kg/injection, schedule: Q01DX005 (ip), vehicle: saline): 109 % of control; T/C (dose: 200.0 mg/kg/injection, schedule: Q01DX005 (ip), vehicle: saline): 107 % of control

Question: Which results are given for `OC1C2CC3C1C3C2O` (stereo not given)?
Answer: T/C [12]: 86 % of control; T/C [13]: 100 % of control; T/C [14]: 104 % of control

Question: For `Cc1nnc(NC2=NCCO2)s1`, which T/C [7] is on record?
Answer: 86 % of control

Question: And the T/C [8]?
Answer: 90 % of control

Question: And the T/C [9]?
Answer: 90 % of control

Question: Which T/C [3] does the source give for `CC[C@@H]1C[C@H]2CC3c4c(c5cc(OC)ccc5n4C)CCN(C2)C31` here?
Answer: 102 % of control

Question: What about the T/C [4] of the same compound?
Answer: 105 % of control

Question: And the T/C [5]?
Answer: 102 % of control

Question: `O=Cc1c2ccc(Cl)cc2nc2ccc(Cl)cc12` was tested. Which T/C (dose: 100.0 mg/kg/injection, schedule: Q01DX001 (ip), vehicle: saline with Tween-80) did it give?
Answer: 100 % of control

Question: What about the T/C (dose: 200.0 mg/kg/injection, schedule: Q01DX001 (ip), vehicle: saline with Tween-80) of the same compound?
Answer: 100 % of control

Question: And the T/C (dose: 400.0 mg/kg/injection, schedule: Q01DX001 (ip), vehicle: saline with Tween-80)?
Answer: 100 % of control

Question: For `COc1cc2c(cc1OC)C1=C(CC2)C2CCCN2CC1` (stereo not given), which T/C (dose: 6.25 mg/kg/injection, schedule: Q01DX009 (ip), vehicle: saline) is on record?
Answer: 95 % of control

Question: And the T/C [15]?
Answer: 105 % of control

Question: What about the T/C [6] of the same compound?
Answer: 95 % of control

Question: What does the source list for `CO[C@H]1C[C@H](O[C@H]2CC[C@@]3(C)[C@H](CC[C@@H]4[C@@H]3CC[C@]3(C)[C@@H](C5=CC(=O)OC5)CC[C@]43O)C2)O[C@H](C)[C@H]1O`?
Answer: T/C (dose: 4.3 mg/kg/injection, schedule: Q01DX009 (ip), vehicle: saline with Tween-80): 99 % of control; T/C (dose: 6.4 mg/kg/injection, schedule: Q01DX009 (ip), vehicle: saline with Tween-80): 107 % of control; T/C (dose: 9.6 mg/kg/injection, schedule: Q01DX009 (ip), vehicle: saline with Tween-80): 107 % of control

Question: How did the T/C (dose: 25.0 mg/kg/injection, schedule: Q01DX009 (ip), vehicle: alcohol) turn out when `NN(C(=O)c1ccccc1)C1CCCCC1` was run?
Answer: 91 % of control

Question: And the T/C (dose: 50.0 mg/kg/injection, schedule: Q01DX009 (ip), vehicle: alcohol)?
Answer: 100 % of control

Question: And the T/C (dose: 75.0 mg/kg/injection, schedule: Q04DX003 (ip), vehicle: Klucel (hydroxypropylcellulose) (HPC))?
Answer: 110 % of control

Question: What about the T/C (dose: 115.0 mg/kg/injection, schedule: Q04DX003 (ip), vehicle: Klucel (hydroxypropylcellulose) (HPC)) of the same compound?
Answer: 120 % of control

Question: And the T/C (dose: 170.0 mg/kg/injection, schedule: Q04DX003 (ip), vehicle: Klucel (hydroxypropylcellulose) (HPC))?
Answer: 100 % of control

Question: What about the T/C (dose: 255.0 mg/kg/injection, schedule: Q04DX003 (ip), vehicle: Klucel (hydroxypropylcellulose) (HPC)) of the same compound?
Answer: 110 % of control

Question: What about the T/C (dose: 385.0 mg/kg/injection, schedule: Q04DX003 (ip), vehicle: Klucel (hydroxypropylcellulose) (HPC)) of the same compound?
Answer: 100 % of control

Question: Which results are given for `CC(=O)c1ccccc1OCC(O)CN1CCN(c2ccccc2)CC1` (stereo not given)?
Answer: T/C (dose: 25.0 mg/kg/injection, schedule: Q01DX009 (ip), vehicle: saline with Tween-80): 100 % of control; T/C (dose: 25.0 mg/kg/injection, schedule: Q04DX003 (ip), vehicle: saline with Tween-80): 113 % of control; T/C [3]: 100 % of control; T/C (dose: 50.0 mg/kg/injection, schedule: Q04DX003 (ip), vehicle: saline with Tween-80): 104 % of control; T/C [4]: 96 % of control; T/C [12]: 109 % of control

Question: Which results are given for `COc1ccc(CC2=NCCc3cc(OC)c(OC)cc32)cc1OC`?
Answer: T/C [15]: 153 % of control; T/C [6]: 99 % of control

Question: Which results are given for `CCC1SC(=S)N(c2ccc(S(N)(=O)=O)cc2)C1=O` (stereo not given)?
Answer: T/C (dose: 33.75 mg/kg/injection, schedule: Q01DX009 (ip), vehicle: saline with Tween-80): 96 % of control; T/C (dose: 67.5 mg/kg/injection, schedule: Q01DX009 (ip), vehicle: saline with Tween-80): 97 % of control; T/C (dose: 135.0 mg/kg/injection, schedule: Q01DX009 (ip), vehicle: saline with Tween-80): 97 % of control

Question: How did the T/C [10] turn out when `c1ccc(SCN2CCN(CSc3ccccc3)CC2)cc1` was run?
Answer: 95 % of control

Question: And the T/C [11]?
Answer: 109 % of control

Question: What does the source list for `C[N+](C)(C)c1ccc2ccccc2n1`?
Answer: T/C (dose: 3.12 mg/kg/injection, schedule: Q01DX001 (ip), vehicle: Klucel (hydroxypropylcellulose) (HPC)): 122 % of control; T/C (dose: 6.25 mg/kg/injection, schedule: Q01DX001 (ip), vehicle: Klucel (hydroxypropylcellulose) (HPC)): 110 % of control; T/C [2]: 122 % of control; T/C (dose: 18.5 mg/kg/injection, schedule: Q01DX001 (ip), vehicle: Klucel (hydroxypropylcellulose) (HPC)): 112 % of control; T/C (dose: 25.0 mg/kg/injection, schedule: Q01DX001 (ip), vehicle: saline): 120 % of control; T/C [10]: 118 % of control

Question: Which T/C [12] does the source give for `CCCNC(=O)Nc1cccc(Cl)c1C` here?
Answer: 104 % of control

Question: What about the T/C [13] of the same compound?
Answer: 100 % of control

Question: What about the T/C [14] of the same compound?
Answer: 100 % of control

Question: Which T/C (dose: 25.0 mg/kg/injection, schedule: Q01DX010 (ip), vehicle: saline) does the source give for `CN(N=O)C(=O)NC(C=O)C(O)C(O)C(O)CO` (stereo not given) here?
Answer: 113 % of control

Question: Which results are given for `NCCNCc1c[nH]c(=O)[nH]c1=O`?
Answer: T/C [3]: 113 % of control; T/C [4]: 111 % of control; T/C [5]: 101 % of control
